Laboratory results taken from publication PMC7555035, “In Vitro Inhibition of Phosphodiesterase 3B (PDE 3B) by Anthocyanin-Rich Fruit Juice Extracts and Selected Anthocyanins” (International Journal of Molecular Sciences, 2020).
“Also recorded” adds a separate entry of the source. Each block holds one compound with its values, some of them ahead of it.

Experiments:
[1] = biological target: phosphodiesterase from rat adipocytes; set-up: method as in PMID 1384499; conditions: cited from earlier work
[2] = system: PDE isolated from the lung tumor xenograft cell line LXFL529L; set-up: method as in PMID 29113064; conditions: cited from earlier work
[3] = system: PDE in human platelet lysates; set-up: method as in PMID 25247601; conditions: in vitro; cited from earlier work
[4] = system: phosphodiesterase 3′,5′-cyclic nucleotide 5′nucleotidohydrolase; set-up: method as in PMID 18617377; conditions: 0.01%, diluted in dimethyl sulfoxide; cited from earlier work
PDE 1 = system: PDE 1; set-up: method as in PMID 27558680; conditions: in vitro; cited from earlier work
[5] = set-up: method as in PMID 22913378; conditions: cited from earlier work
[6] = system: cytosolic PDE activity in HT29 cells; set-up: method as in PMID 15497183; conditions: cited from earlier work
[7] = biological target: T1, PDE 3B (recombinant, EC 3.1.4.17) (Homo sapiens, UniProt Q13370); assay: cAMP-specific PDE activity assay (cell-free, radiochemical); assay type: biochemical; conditions: for IC50: mean ± SD, n = 3–4, read-out: IC50 of cyanidin and anthocyanins; for influence on PDE activity (in words): c = 25–2000 µM; for IC50 of single anthocyanins: given in µg/mL
T1 construct: purchased Sigma Aldrich (St. Louis, MO, USA)
T1 sequence (Q13370 whole entry, species assumed): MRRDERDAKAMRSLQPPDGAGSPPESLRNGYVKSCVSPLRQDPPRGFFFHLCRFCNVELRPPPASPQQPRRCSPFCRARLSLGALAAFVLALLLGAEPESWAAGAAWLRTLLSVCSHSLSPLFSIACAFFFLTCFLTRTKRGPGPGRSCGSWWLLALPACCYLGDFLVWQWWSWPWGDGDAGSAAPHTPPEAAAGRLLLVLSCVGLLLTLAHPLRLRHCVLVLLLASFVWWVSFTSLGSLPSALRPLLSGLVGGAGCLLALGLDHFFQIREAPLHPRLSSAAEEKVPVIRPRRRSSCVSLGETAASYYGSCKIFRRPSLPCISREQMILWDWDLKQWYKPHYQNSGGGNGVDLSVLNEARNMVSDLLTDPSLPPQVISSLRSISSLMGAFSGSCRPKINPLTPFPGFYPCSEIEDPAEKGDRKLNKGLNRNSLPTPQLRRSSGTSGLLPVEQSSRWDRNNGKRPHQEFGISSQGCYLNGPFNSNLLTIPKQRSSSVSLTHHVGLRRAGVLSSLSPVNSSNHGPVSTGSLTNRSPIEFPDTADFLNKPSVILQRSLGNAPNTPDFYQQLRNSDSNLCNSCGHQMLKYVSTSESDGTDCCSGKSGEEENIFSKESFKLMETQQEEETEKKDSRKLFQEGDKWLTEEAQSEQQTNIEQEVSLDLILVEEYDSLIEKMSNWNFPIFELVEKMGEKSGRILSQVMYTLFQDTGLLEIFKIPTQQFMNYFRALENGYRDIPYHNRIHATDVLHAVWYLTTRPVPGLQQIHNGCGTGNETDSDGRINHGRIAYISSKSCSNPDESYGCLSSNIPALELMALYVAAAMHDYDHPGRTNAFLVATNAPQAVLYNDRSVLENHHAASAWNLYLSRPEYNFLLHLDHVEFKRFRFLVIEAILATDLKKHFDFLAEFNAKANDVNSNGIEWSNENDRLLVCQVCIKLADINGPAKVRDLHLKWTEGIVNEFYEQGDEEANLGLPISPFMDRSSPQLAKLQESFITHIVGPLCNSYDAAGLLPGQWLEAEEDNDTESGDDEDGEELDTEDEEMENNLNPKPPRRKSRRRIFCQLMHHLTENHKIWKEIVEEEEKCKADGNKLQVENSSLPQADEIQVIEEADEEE
Method: The inhibitory effect of each extract on PDE 3B was measured according to the method published by Pöch et al. with slight modifications. One hundred microliters (100 µL) of the sample and 20 µL of PDE 3B (200 Units/mL) were incubated for 15 min at 4°C. Afterwards, a 50 µL volume of cAMP Mix (30 mM Tris/HCl pH 7.4, 9 mM MgCl2, 3 mM 5′AMP, 3 µM cAMP, 2.6 µCi/mL [2,8-^3H]-cAMP) was added and the mixture incubated for 25 min at 37 °C to allow for reaction. […] Experiments were performed in triplicate, and IC50 values were determined after at least three independent experiments. The ranges of test concentrations of extracts and single substances were intentionally chosen to align with similar ranges used for previous studies (extracts < 600 µg/mL; ACs < 2000 µM) to facilitate comparison with previous experiments.

human PDE 5A1 = system: human PDE 5A1; set-up: method as in PMID 15769121; conditions: cited from earlier work

Structure (SMILES): CC(C)Cn1c(=O)n(C)c(=O)c2[nH]cnc21
IC50 [1]: 30 to 50 µM

Structure (SMILES): O=C(/C=C/c1ccc(O)c(O)c1)O[C@@H]1[C@H](O)C[C@@](O)(C(=O)O)C[C@H]1OC(=O)/C=C/c1ccc(O)c(O)c1 (stereo in doubt) [3,4-dicaffeoylquinic acid]
IC50 [2]: > 1000 µM

Structure (SMILES): O=c1c(O)c(-c2ccc(O)c(O)c2)oc2cc(O)cc(O)c12 [Quercetin]
inhibitory potency relative to 3-isobutyl-2-methylxanthine (in words) [1]: comparable to or greater than 3-isobutyl-2-methylxanthine

Structure (SMILES): Cn1c(=O)c2c(ncn2C)n(C)c1=O [caffeine]
IC50 [3]: 700 µM
PDE inhibition [4]: 56%

Structure (SMILES): O=C(/C=C/c1ccc(O)c(O)c1)O[C@@H]1C[C@](O)(C(=O)O)C[C@@H](O)[C@H]1O [chlorogenic acid]
IC50 (PDE 1): 36.7 ± 1.6 µM

remaining activity at 11 µM ([7]; c = 11 µM, read-out: rel. PDE 3B activity (% of solvent control)): 94.7 ± 2.8%
remaining activity at 271 µM ([7]; c = 271 µM, read-out: rel. PDE 3B activity (% of solvent control)): 28.7 ± 6.5%
IC50 [7]: 105 ± 11 µM
Structure (SMILES): Oc1cc(O)c2cc(O)c(-c3ccc(O)c(O)c3)[o+]c2c1 [cyanidin, cyanidin chloride]
stability in cell culture medium (in words) [5]: degraded rapidly
IC50 [6]: ~175 µM

influence on PDE activity (in words) [7]: inactive; also recorded: no effect
Structure (SMILES): OC[C@H]1O[C@@H](Oc2cc3c(O[C@@H]4O[C@H](CO)[C@@H](O)[C@H](O)[C@H]4O)cc(O)cc3[o+]c2-c2ccc(O)c(O)c2)[C@H](O)[C@@H](O)[C@@H]1O.[Cl-] [cyanidin-3,5-diglucoside, cyanidin-3,5-diglucoside chloride]

rel. PDE activity (% of solvent control) ([7]; c = 600 µM): 32.3 ± 2.9%
IC50 of single anthocyanins [7]: 108 ± 6 µg/mL
IC50 [7]: 257 ± 13 µM
Structure (SMILES): Oc1cc(O)c2cc(O[C@@H]3OC[C@H](O)[C@H](O)[C@H]3O)c(-c3ccc(O)c(O)c3)[o+]c2c1.[Cl-] [cyanidin-3-arabinoside, cyanidin-3-arabinoside chloride]

concentration below which no influence on PDE activity [7]: below 884 µM
rel. PDE activity (% of solvent control) ([7]; c = 2000 µM): 52.3 ± 13.7%
influence on PDE activity (in words) [7]: little PDE inhibition
Structure (SMILES): OC[C@H]1OC(Oc2cc3c(O)cc(O)cc3[o+]c2-c2ccc(O)c(O)c2)[C@H](O)[C@@H](O)[C@H]1O.[Cl-] (stereo partly drawn) [cyanidin-3-galactoside, cyanidin-3-galactoside chloride]

inhibition of PDE 3B ([7]; c = 600 µM): 63%
rel. PDE activity (% of solvent control) ([7]; c = 600 µM): around 40%
IC50 of single anthocyanins [7]: 134 ± 25 µg/mL
IC50 [7]: 299 ± 56 µM
Structure (SMILES): OC[C@H]1O[C@@H](Oc2cc3c(O)cc(O)cc3[o+]c2-c2ccc(O)c(O)c2)[C@H](O)[C@@H](O)[C@@H]1O.[Cl-] [cyanidin-3-glucoside, cyanidin-3-glucoside chloride]
PDE inhibition [4]: 99%

influence on PDE activity (in words) [7]: inactive
Structure (SMILES): C[C@@H]1O[C@@H](OC[C@H]2O[C@@H](Oc3cc4c(O)cc(O)cc4[o+]c3-c3ccc(O)c(O)c3)[C@H](O)[C@@H](O)[C@@H]2O)[C@H](O)[C@H](O)[C@H]1O.[Cl-] [cyanidin-3-rutinoside, cyanidin-3-rutinoside chloride]

Structure (SMILES): O=C(O)c1cc(O)c(O)c(O)c1 [gallic acid]
IC50 (PDE 1): 325 ± 3.62 µM

Structure (SMILES): O=c1c(-c2ccc(O)cc2)coc2cc(O)cc(O)c12 [genistein]
inhibitory potency relative to 3-isobutyl-2-methylxanthine (in words) [1]: comparable to or greater than 3-isobutyl-2-methylxanthine

Structure (SMILES): O=c1c(O)c(-c2ccc(O)cc2)oc2cc(O)cc(O)c12 [kaempferol]
IC50 [1]: 58 µM

Structure (SMILES): O=c1cc(-c2ccc(O)c(O)c2)oc2cc(O)cc(O)c12 [luteolin]
IC50 [2]: 41 ± 10 µM
inhibitory potency relative to 3-isobutyl-2-methylxanthine (in words) [1]: comparable to or greater than 3-isobutyl-2-methylxanthine

Structure (SMILES): COc1cc(-c2[o+]c3cc(O)cc(O)c3cc2O[C@@H]2O[C@H](CO)[C@@H](O)[C@H](O)[C@H]2O)cc(OC)c1O.[Cl-] [malvidin-3-glucoside, malvidin-3-glucoside chloride]
IC50 (human PDE 5A1): 35.4 µM
minimum rel. PDE activity (% of solvent control) ([7]; c = 1328 µM): 71.4 ± 9.7%

Structure (SMILES): COc1cc(-c2[o+]c3cc(O)cc(O)c3cc2O)cc(OC)c1O [malvidin]
IC50 (human PDE 5A1): 24.9 µM

Structure (SMILES): O=c1c(O)c(-c2cc(O)c(O)c(O)c2)oc2cc(O)cc(O)c12 [myricetin]
IC50 [1]: 125 µM

concentration above which PDE activity significantly diminished [7]: above 55 µM
rel. PDE 3B activity (% of solvent control) ([7]; c = 271 µM): comparable to those seen with caffeine
IC50 of single anthocyanins [7]: 56 ± 20 µg/mL
IC50 [7]: 120 ± 44 µM
Structure (SMILES): COc1cc(-c2[o+]c3cc(O)cc(O)c3cc2O[C@@H]2O[C@H](CO)[C@@H](O)[C@H](O)[C@H]2O)ccc1O.[Cl-] [peonidin-3-glucoside, Peonidin-3-glucoside chloride]

rel. PDE activity (% of solvent control) ([7]; c = 600 µM): around 40%
IC50 [7]: 448 ± 39 µM
Structure (SMILES): COc1cc(-c2[o+]c3cc(O)cc(O)c3cc2O[C@@H]2O[C@H](CO)[C@@H](O)[C@H](O)[C@H]2O)cc(O)c1O.[Cl-] [petunidin-3-glucoside, petunidin-3-glucoside chloride]
